Marks after values point to notes of the source that are not given here.
Tested on: mice
Test: Sleeping duration induced by a threshold dose of pentobarbital sodium
Format: in vivo, Kunming mice
Details: for Sleeping duration: pentobarbital sodium 50 mg/kg ip
Experimental: Forty Kunming mice, half males and half females, were fasted for 12 h but free to drink water. The mice were randomly divided into four groups: a blank control group, a low does Compound group (0.4 g/kg, ig), a high dose Compound group (0.8 g/kg, ig) and a positive drug control group (Estazolam, 2 mg/kg). each group of mice was administered according to the above doses (ig), and the blank control group was given the same volume of normal saline. Forty-five minutes later, each mouse was given (ip) 50 mg/kg pentobarbital sodium, and then the sleeping duration of each group of mice was recorded (taking the disappear of righting reflex after administration as the indicator of falling asleep, and the recovery of righting reflex as the end time of the sleep).

In the case of `CC1(C)O[C@H]2CC[C@@]3(C)[C@@H]([C@@H](O)[C@H](O)[C@@H]3[C@@](C)(O)CC[C@@H]3OC(C)(C)[C@H]4CC[C@]3(C)O4)[C@]2(C)CC[C@H]1O` [the compound, limaxol A], the “Effect on sleeping duration induced by pentobarbital sodium” value (0.4, 0.8 g/kg, ig) is reported as “significantly prolong the sleeping duration”, the Sleeping duration (high dose 0.8 g/kg ig) is reported as 32.8 ± 9.56*^ΔΔ min and the Sleeping duration (low dose 0.4 g/kg ig) is reported as 39.5 ± 11.46**^Δ min.
